From ChEMBL document CHEMBL1144796, “Carbonic anhydrase inhibitors. Interaction of indapamide and related diuretics with 12 mammalian isozymes and X-ray crystallographic studies for the indapamide-isozyme II adduct” (Bioorg Med Chem Lett, 2008)

Experiments:
[1] = target: Carbonic anhydrase 13 (Mus musculus) (UniProt Q9D6N1); test: Inhibition of mouse full length carbonic anhydrase 13
[2] = target: Carbonic anhydrase 5B, mitochondrial (Homo sapiens) (UniProt Q9Y2D0)
[3] = target: Carbonic anhydrase 6 (Homo sapiens) (UniProt P23280)
Sequence of Carbonic anhydrase 6 (Homo sapiens) (P23280 whole entry): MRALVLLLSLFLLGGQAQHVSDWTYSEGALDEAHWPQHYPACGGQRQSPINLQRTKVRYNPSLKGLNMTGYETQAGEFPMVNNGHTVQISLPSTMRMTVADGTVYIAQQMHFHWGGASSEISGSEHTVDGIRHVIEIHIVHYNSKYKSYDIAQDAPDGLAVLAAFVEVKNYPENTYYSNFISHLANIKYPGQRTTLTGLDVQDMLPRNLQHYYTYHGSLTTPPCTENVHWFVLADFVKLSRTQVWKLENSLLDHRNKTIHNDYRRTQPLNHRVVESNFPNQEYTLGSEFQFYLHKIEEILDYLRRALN

[4] = target: Carbonic anhydrase 9 (Homo sapiens) (UniProt Q16790)
[5] = target: Carbonic anhydrase 12 (Homo sapiens) (UniProt O43570)
Sequence of Carbonic anhydrase 12 (Homo sapiens) (O43570 whole entry): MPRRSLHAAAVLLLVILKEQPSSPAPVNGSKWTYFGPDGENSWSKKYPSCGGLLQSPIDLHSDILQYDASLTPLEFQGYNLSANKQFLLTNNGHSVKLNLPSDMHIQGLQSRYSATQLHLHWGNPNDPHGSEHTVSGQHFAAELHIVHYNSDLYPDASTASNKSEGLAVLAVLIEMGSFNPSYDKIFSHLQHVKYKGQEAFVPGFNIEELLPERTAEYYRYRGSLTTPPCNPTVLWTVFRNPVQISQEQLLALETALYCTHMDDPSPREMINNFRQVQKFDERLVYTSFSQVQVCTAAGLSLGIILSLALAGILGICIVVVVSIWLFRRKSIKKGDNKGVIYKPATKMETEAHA

[6] = target: Carbonic anhydrase 14 (Homo sapiens) (UniProt Q9ULX7)
Sequence of Carbonic anhydrase 14 (Homo sapiens) (Q9ULX7 whole entry): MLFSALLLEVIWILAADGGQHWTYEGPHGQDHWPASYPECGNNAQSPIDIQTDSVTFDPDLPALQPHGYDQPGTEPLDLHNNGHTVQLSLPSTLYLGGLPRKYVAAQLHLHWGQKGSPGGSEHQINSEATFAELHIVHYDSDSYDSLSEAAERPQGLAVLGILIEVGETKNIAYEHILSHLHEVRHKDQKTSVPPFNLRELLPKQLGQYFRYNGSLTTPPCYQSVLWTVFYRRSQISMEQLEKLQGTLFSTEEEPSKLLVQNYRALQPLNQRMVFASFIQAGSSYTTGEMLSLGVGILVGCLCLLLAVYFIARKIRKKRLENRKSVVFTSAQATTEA

[7] = target: Carbonic anhydrase 3 (Homo sapiens) (UniProt P07451)
Sequence of Carbonic anhydrase 3 (Homo sapiens) (P07451 whole entry): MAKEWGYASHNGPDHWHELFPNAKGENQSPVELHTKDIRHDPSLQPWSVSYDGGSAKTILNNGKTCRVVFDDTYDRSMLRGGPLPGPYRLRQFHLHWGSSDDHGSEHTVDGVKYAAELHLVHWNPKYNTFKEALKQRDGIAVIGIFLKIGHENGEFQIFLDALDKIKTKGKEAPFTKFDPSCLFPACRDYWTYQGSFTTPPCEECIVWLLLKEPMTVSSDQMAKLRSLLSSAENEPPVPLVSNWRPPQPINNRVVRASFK

[8] = target: Carbonic anhydrase 4 (Homo sapiens) (UniProt P22748)
Sequence of Carbonic anhydrase 4 (Homo sapiens) (P22748 whole entry): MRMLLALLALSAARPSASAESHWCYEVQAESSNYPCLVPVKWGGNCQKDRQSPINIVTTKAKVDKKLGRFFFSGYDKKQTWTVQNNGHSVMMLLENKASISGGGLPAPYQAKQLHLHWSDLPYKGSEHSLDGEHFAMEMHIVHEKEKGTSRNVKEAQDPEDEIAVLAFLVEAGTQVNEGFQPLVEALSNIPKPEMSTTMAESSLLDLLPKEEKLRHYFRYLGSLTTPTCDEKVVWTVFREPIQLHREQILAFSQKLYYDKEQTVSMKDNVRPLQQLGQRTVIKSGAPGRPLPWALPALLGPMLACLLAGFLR

[9] = target: Carbonic anhydrase 5A, mitochondrial (Homo sapiens) (UniProt P35218)
Sequence of Carbonic anhydrase 5A, mitochondrial (Homo sapiens) (P35218 whole entry): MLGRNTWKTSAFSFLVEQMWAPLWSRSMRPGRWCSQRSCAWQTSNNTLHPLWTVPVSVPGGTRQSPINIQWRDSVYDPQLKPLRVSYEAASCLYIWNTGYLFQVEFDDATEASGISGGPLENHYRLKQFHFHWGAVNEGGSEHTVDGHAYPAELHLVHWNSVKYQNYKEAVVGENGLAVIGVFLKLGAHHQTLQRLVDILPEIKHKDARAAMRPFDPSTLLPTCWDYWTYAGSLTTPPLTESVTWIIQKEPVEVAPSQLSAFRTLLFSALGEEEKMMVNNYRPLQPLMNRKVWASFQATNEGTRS

[10] = target: Carbonic anhydrase 7 (Homo sapiens) (UniProt P43166)
Sequence of Carbonic anhydrase 7 (Homo sapiens) (P43166 whole entry): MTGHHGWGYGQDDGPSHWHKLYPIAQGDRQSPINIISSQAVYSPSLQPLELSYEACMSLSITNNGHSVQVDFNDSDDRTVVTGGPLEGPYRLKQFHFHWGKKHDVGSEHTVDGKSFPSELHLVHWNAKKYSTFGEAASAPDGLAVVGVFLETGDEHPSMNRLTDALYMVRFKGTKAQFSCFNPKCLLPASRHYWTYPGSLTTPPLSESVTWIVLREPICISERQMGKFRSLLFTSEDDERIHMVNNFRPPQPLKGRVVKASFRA

[11] = target: Carbonic anhydrase 2 (Homo sapiens) (UniProt P00918)

Sequence of Carbonic anhydrase 5B, mitochondrial (Homo sapiens) (Q9Y2D0 whole entry): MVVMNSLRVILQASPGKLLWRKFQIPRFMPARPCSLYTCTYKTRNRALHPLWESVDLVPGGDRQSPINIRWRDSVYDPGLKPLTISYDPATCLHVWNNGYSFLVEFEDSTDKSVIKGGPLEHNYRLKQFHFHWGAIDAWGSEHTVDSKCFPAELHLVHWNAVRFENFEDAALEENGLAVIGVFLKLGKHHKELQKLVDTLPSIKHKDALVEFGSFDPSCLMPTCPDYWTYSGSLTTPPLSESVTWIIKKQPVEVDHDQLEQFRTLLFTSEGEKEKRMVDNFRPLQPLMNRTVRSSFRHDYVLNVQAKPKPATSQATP
Sequence of Carbonic anhydrase 13 (Mus musculus) (Q9D6N1 whole entry, looked up): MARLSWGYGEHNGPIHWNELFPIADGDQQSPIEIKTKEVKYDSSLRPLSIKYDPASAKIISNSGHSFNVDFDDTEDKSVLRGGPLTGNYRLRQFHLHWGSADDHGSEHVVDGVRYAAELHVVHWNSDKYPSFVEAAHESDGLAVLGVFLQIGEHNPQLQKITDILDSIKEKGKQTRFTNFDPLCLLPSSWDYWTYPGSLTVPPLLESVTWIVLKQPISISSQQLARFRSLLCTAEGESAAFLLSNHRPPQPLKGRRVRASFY

| SMILES | Ki [1] [nM] | Ki [2] [nM] | Ki [3] [nM] | Ki [4] [nM] | Ki [5] [nM] | Ki [6] [nM] | Ki [7] | Ki [8] [nM] | Ki [9] [nM] | Ki [10] [nM] | Ki [11] [nM] |
| --- | --- | --- | --- | --- | --- | --- | --- | --- | --- | --- | --- |
| CC1Nc2cc(Cl)c(S(N)(=O)=O)cc2S(=O)(=O)N1C (stereo not drawn) | 3880 | 603 | 3660 | 367 | 355 | 4100 | > 2 10^5nM | 427 | 4220 |  |  |
| CCCCNc1cc(C(=O)O)cc(S(N)(=O)=O)c1Oc1ccccc1 | 2570 | 159 | 3890 | 25.8 | 21.1 | 250 | > 2 10^5nM | 303 | 700 | 62 | 6980 |
| Cc1ccccc1N1C(=O)c2cc(S(N)(=O)=O)c(Cl)cc2NC1C (stereo not drawn) | 15 | 312 | 1710 | 320 | 5.4 | 5430 | > 2 10^5nM | 216 | 750 |  | 2000 |
| NS(=O)(=O)c1cc(C(=O)O)c(NCc2ccco2)cc1Cl |  |  |  |  |  |  | > 2 10^5nM |  |  |  |  |
| CC(=O)/N=c1/sc(S(N)(=O)=O)nn1C |  |  |  |  |  |  | > 2 10^5nM |  |  |  |  |
| CCC1NC(=O)c2cc(S(N)(=O)=O)c(Cl)cc2N1 (stereo not drawn) |  |  |  |  |  |  |  |  |  |  | 1260 |
| CC1Nc2cc(C(F)(F)F)c(S(N)(=O)=O)cc2S(=O)(=O)N1C (stereo not drawn) | 15400 | 429 | 8250 | 412 | 305 | 360 | > 2 10^5nM | 4780 | 10200 | 433 | 435 |
| NS(=O)(=O)c1cc(C2(O)NC(=O)c3ccccc32)ccc1Cl (stereo not drawn) | 15 | 9 | 1350 | 23 |  | 4130 |  | 196 | 917 | 2.8 | 138 |
